Experimental data taken from patent US20220348595A1, “COMPOUNDS AND METHODS FOR THE TARGETED DEGRADATION OF ESTROGEN RECEPTORS” (Endotarget Inc., priority 2021, published 2022).

Columns and labels:
Assay type in all cases: cell-based
ER = biological target: T1, ER (Homo sapiens, UniProt P03372); assay: ER antagonism (T47D ERE luciferase), T47d-kb-Luc cells; settings: read-out: IC50 (ER antagonistm)
T1 construct: endogenous in cells; host or cells: T47d-kb-Luc (T47D stably transfected with a luciferase reporter gene only)
T1 sequence (P03372 1-595): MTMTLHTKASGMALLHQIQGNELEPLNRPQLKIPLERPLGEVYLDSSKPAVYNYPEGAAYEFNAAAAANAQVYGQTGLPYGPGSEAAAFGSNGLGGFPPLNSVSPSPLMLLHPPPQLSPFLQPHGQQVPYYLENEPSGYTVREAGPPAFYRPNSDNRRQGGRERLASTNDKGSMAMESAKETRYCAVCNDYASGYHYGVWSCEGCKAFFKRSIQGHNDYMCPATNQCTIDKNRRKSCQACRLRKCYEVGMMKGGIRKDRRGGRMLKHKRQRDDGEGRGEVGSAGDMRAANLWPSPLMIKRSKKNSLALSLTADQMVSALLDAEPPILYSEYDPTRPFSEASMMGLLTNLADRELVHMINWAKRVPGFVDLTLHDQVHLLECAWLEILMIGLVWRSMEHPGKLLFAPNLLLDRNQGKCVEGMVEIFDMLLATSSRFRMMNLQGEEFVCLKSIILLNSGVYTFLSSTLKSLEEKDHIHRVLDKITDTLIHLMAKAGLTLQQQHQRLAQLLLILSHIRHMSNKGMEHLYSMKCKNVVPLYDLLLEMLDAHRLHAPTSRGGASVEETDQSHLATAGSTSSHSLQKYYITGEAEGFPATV
Procedure: The Antiestrogenic Activity of the Exemplary Compounds was Assessed in T47d-kb-Luc Stably Transfected Human Breast Cancer Cell
Antagonist activities were measured by the compound's ability to inhibit the activity of estradiol, the natural estrogen. Data were then normalized relative to the activity of the estradiol control and determinations were performed for five concentrations of the samples in quadruplicate in at least three separate experiments.

[1] = test system: MCF-7 breast cancer cells; assay: MCF-7 proliferation / cell viability assay; settings: Homo sapiens, MCF7; MCF-7 proliferation with 0.1 nM 17-beta estradiol; read-out: IC50 (anti-proliferation)
Procedure: The Anti-Proliferative Activities of the Exemplary Compounds were Assessed by a Cell Viability Assay in MCF-7 Breast Cancer Cells
MCF-7 cells were plated in six-well plates at a density of 50,000 each well in 5% FBS DMEM medium. The cells were then treated with exemplary compounds or fulvestrant separately at 6 different doses ranging from 10^−10 M to 10^−5 M for 5 days, while equal volumes of DMSO were used as vehicle controls. Viable cell numbers were counted with a Z Series Coulter Counter instrument (Beckman-Coulter) following manufacturer's instructions. The ratio of drug treated viable cell numbers to vehicle treated viable cell numbers was defined as survival ratio where the control has the survival ratio of 100%.

ERα = biological target: T2, ERα (Homo sapiens, UniProt P03372); assay: ER degradation in MCF-7 cells (Western blot); settings: for DC50: ER degradation, 24 hours; for Dmax: MCF7, Maximal ER degradation, read-out: Dmax
T2 construct: endogenous in cells; host or cells: MCF-7
T2 sequence (P03372 1-595): T1 sequence (P03372 1-595)
Procedure: Degradation of ER in MCF-7 Breast Cancer Cells by Exemplary Compounds of the Present Disclosure
MCF-7 cells were plated in 24-well plates at a density of 10^5 cells/well. Media containing various drug concentrations were added on the day following plating (day 0) and allowed to incubate for 24 hours for Western blot. Media with the tested compound was changed every other day. Cells were lysed, snapped frozen in liquid nitrogen, and stored at −80° C. until assay for ERα. Media were removed and dishes were washed with 1× DPBS. Lysates were made by adding 150 μL of complete lysis solution and scraping cells into a 1.5 mL microcentrifuge tube. Lysates were placed on a rotisserie at 4° C. for 30 min and then spun at 4° C. at 12000 rcf for 10 min. Supernatants were assayed for protein content, snap-frozen, and stored a −80° C. if not run immediately. Then 50 μg of protein was subjected to Western blot protocol. Membranes were blocked and then incubated with 1:200 dilution of ERα antibody at 4° C. overnight followed by 1:10000 dilution of secondary antibody for 1 h at room temperature. They were then imaged on a LICOR infrared scanner.
FIGS. 1 to 10 show the ER degradation efficacy of compounds 3, 5, 9, 11, 12, 16, 18, 19, 20, 21, 23, 24, 25, 26, 27, 28, 29, 30, 31, 32, 33, 34, 37, 38, and 40 in MCF-7 cells at various concentrations. Degradation of ER was expressed as an DC50 value and was determined for exemplary compounds in Table 1 by calculation of the concentration of compound that was required to give a 50% reduction of ER expression level. Maximal degradation of ER was expressed as a Dmax value by measuring the highest percentage of ER reduction achieved by exemplary compound in the treatment concentration range.

| SMILES | IC50 (ER) [µM] | IC50 [1] [µM] | DC50 (ERα) [µM] | Dmax (ERα) [%] |
| --- | --- | --- | --- | --- |
| CC/C(=C(/c1ccc(OCCN2CCC(CCN3CCN(c4ccc5c(c4)CN(C4CCC(=O)NC4=O)C5=O)CC3)CC2)cc1)c1ccc(B(O)O)cc1)c1ccccc1 (centres unmarked) [Compound 29, (Z)-(4-(1-(4-(2-(4-(2-(4-(2-(2,6-dioxopiperidin-3-yl)-1-oxoisoindolin-5-yl)piperazin-1-yl)ethyl)piperidin-1-yl)ethoxy)phenyl)-2-phenylbut-1-en-1-yl)phenyl)boronic acid] | 0.01 to 0.05 | 0.01 to 0.05 | 0.01 to 0.05 | > 90 |
| CC/C(=C(\c1ccc(OCCN2CCC(CCN3CCN(c4ccc5c(c4)CN(C4CCC(=O)NC4=O)C5=O)CC3)CC2)cc1)c1ccc(B(O)O)cc1)c1ccccc1 (stereo not drawn) [Compound 30, (E)-(4-(1-(4-(2-(4-(2-(4-(2-(2,6-dioxopiperidin-3-yl)-1-oxoisoindolin-5-yl)piperazin-1-yl)ethyl)piperidin-1-yl)ethoxy)phenyl)-2-phenylbut-1-en-l-yl)phenyl)boronic acid] | 0.01 to 0.05 | 0.01 to 0.05 | < 0.01 | > 90 |
| CC/C(=C(/c1ccc(OCCN2CCC(N3CCN(c4ccc5c(c4)C(=O)N(C4CCC(=O)NC4=O)C5=O)CC3)CC2)cc1)c1ccc(B(O)O)cc1)c1ccccc1 (centres unmarked) [Compound 31, (Z)-(4-(1-(4-(2-(4-(4-(2-(2,6-dioxopiperidin-3-yl)-1,3-dioxoisoindolin-5-yl)piperazin-1-yl)piperidin-1-yl)ethoxy)phenyl)-2-phenylbut-1-en-1-yl)phenyl)boronic acid] | > 0.05 | > 0.05 | 0.01 to 0.05 | > 90 |
| CC/C(=C(\c1ccc(OCCN2CCC(N3CCN(c4ccc5c(c4)C(=O)N(C4CCC(=O)NC4=O)C5=O)CC3)CC2)cc1)c1ccc(B(O)O)cc1)c1ccccc1 (centres unmarked) [Compound 32, (E)-(4-(1-(4-(2-(4-(4-(2-(2,6-dioxopiperidin-3-yl)-1,3-dioxoisoindolin-5-yl)piperazin-1-yl)piperidin-1-yl)ethoxy)phenyl)-2-phenylbut-1-en-1-yl)phenyl)boronic acid] | > 0.05 | > 0.05 | 0.01 to 0.05 | > 90 |
| CC/C(=C(/c1ccc(OCCN2CCC(C3CCN(c4ccc5c(c4)C(=O)N(C4CCC(=O)NC4=O)C5=O)CC3)CC2)cc1)c1ccc(B(O)O)cc1)c1ccccc1 (centres unmarked) [Compound 33, (Z)-(4-(1-(4-(2-(1′-(2-(2,6-dioxopiperidin-3-yl)-1,3-dioxoisoindolin-5-yl)-[4,4′-bipiperidin]-1-yl)ethoxy)phenyl)-2-phenylbut-1-en-1-yl)phenyl)boronic acid] | 0.01 to 0.05 | 0.01 to 0.05 | < 0.01 | > 90 |

Continued, values first:

| IC50 (ER) [µM] | IC50 [1] [µM] | DC50 (ERα) [µM] | Dmax (ERα) [%] | SMILES |
| --- | --- | --- | --- | --- |
| 0.01 to 0.05 | 0.01 to 0.05 | < 0.01 | > 90 | CC/C(=C(\c1ccc(OCCN2CCC(C3CCN(c4ccc5c(c4)C(=O)N(C4CCC(=O)NC4=O)C5=O)CC3)CC2)cc1)c1ccc(B(O)O)cc1)c1ccccc1 (centres unmarked) [Compound 34, (E)-(4-(1-(4-(2-(1′-(2-(2,6-dioxopiperidin-3-yl)-1,3-dioxoisoindolin-5-yl)-[4,4′-bipiperidin]-1-yl)ethoxy)phenyl)-2-phenylbut-1-en-1-yl)phenyl)boronic acid] |
| 0.01 to 0.05 | 0.01 to 0.05 | 0.01 to 0.05 | > 90 | CC/C(=C(/c1ccc(OCCCCCN2CCN(c3ccc4c(c3)CN(C3CCC(=O)NC3=O)C4=O)CC2)cc1)c1ccc(B(O)O)cc1)c1ccccc1 (centres unmarked) [Compound 35, (Z)-(4-(1-(4-((5-(4-(2-(2,6-dioxopiperidin-3-yl)-1-oxoisoindolin-5-yl)piperazin-1-yl)pentyl)oxy)phenyl)-2-phenylbut-1-en-1-yl)phenyl)boronic acid] |
| 0.01 to 0.05 | 0.01 to 0.05 | 0.01 to 0.05 | > 90 | CC/C(=C(\c1ccc(OCCCCCN2CCN(c3ccc4c(c3)CN(C3CCC(=O)NC3=O)C4=O)CC2)cc1)c1ccc(B(O)O)cc1)c1ccccc1 (centres unmarked) [Compound 36] |
